Assay results reported in article PMC13703928, “Substrate‐Dependent Crosslinking by the Cytochrome P450 From Aminopyruvatide Biosynthesis” (Angewandte Chemie (International Ed. in English), 2026).
Values joined by “and” are separate entries in the source; they are usually repeats but may differ in a detail not shown here. Equal entries are not always repeated. “Also recorded” adds a separate entry of the source.

Experiments:
cathepsin L = biological target: T1, cathepsin L (Homo sapiens, UniProt P07711); assay: biochemical; details: 200 pM enzyme, 10 µM Z-FR-AFC; for Inhibition of cathepsin L at 25 µM (in words): pH 5.5, 30 °C
T1 construct: purchased Athens research and technology 16-12-030112

chymotrypsin = type: biochemical; details: 1 nM enzyme, 10 µM Suc-AAPF-AMC, Tris HCl pH 8, 30 °C
papain = biological target: T2, papain (Carica papaya, UniProt P00784); assay: biochemical; details: 200 pM enzyme, 10 µM Z-FR-AFC; for Inhibition of papain at 25 µM (in words): pH 7, 30 °C; for IC50: 50 mM sodium phosphate pH 7, 1 mM EDTA, 2 mM DTT, 30 °C, 15 min preincubation at room temperature, fluorescence, meaning of ± and n not given, read-out: IC50, inhibition of papain
T2 construct: purchased Sigma P4762-25MG
T2 sequence (P00784 134-345): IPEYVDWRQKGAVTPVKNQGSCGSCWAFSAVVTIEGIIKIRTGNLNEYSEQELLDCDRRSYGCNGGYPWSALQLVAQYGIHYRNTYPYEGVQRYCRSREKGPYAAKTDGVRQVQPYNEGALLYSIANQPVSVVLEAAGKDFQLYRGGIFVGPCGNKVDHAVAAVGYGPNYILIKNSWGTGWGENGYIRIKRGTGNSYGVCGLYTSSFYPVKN

cathepsin B = biological target: T3, cathepsin B (Homo sapiens, UniProt P07858); assay: biochemical; details: 192.4 pM enzyme, 20 µM Z-RR-4MBNA; for Inhibition of cathepsin B at 25 µM (in words): pH 6.0, 30 °C
T3 construct: purchased Athens research and technology 16-12-030102

[1] = tested on: main protease from SARS CoV‐2 (M^pro); type: biochemical
trypsin = type: biochemical; details: 500 pM enzyme, 10 µM Boc-QAR-AMC, Tris HCl pH 8, 30 °C
ApyO [2] = type: biochemical, Burkholderia thailandensis E264; details: pH 7.5
ApyO [3] = type: biochemical, Burkholderia thailandensis E264; details: pH 7.5; remark: listed apart in the source
[4] = tested on: proteases (trypsin, chymotrypsin, papain, cathepsin B, cathepsin L, ACE, M^pro); type: biochemical
[5] = biological target: T4, angiotensin I‐converting enzyme (ACE) (Oryctolagus cuniculus, UniProt P12822); type: biochemical; details: 0.4 mU/mL enzyme, 10 µM Abz-FRK(Dnp)-P-OH, pH 7.5, 37 °C
T4 construct: purchased Sigma A6778
T4 sequence (P12822 34-1310): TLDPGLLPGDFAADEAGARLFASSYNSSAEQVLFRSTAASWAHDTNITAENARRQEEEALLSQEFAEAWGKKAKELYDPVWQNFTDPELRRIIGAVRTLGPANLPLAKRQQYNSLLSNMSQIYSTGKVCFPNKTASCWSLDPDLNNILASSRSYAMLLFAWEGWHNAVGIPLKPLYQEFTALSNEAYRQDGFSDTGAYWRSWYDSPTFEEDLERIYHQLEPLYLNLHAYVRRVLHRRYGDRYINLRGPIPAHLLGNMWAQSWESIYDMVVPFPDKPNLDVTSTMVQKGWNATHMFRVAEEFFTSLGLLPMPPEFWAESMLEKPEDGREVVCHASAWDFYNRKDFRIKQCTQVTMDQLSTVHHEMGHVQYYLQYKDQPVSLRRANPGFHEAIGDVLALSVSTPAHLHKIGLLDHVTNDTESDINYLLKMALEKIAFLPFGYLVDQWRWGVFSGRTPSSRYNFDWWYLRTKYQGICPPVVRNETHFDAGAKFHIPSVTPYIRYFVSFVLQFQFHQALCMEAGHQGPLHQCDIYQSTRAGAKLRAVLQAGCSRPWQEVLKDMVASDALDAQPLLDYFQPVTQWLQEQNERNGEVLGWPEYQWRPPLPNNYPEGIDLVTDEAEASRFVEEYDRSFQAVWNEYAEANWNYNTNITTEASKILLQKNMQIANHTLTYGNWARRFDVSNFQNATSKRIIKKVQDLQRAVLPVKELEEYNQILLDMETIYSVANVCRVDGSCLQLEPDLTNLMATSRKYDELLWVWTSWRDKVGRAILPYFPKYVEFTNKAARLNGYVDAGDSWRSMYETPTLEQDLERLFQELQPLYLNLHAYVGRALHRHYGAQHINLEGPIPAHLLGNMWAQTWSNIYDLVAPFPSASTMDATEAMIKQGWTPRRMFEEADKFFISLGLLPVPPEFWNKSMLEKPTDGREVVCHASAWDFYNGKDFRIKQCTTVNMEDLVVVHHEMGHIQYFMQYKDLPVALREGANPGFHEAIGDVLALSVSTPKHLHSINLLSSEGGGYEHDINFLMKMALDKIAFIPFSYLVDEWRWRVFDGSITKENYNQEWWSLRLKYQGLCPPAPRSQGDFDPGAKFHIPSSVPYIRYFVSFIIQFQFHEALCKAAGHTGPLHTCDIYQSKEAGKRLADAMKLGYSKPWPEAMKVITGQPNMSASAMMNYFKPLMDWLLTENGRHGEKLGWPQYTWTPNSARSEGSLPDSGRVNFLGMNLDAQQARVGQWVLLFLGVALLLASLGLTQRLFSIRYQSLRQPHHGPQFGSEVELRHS

T1 sequence (P07711 114-333): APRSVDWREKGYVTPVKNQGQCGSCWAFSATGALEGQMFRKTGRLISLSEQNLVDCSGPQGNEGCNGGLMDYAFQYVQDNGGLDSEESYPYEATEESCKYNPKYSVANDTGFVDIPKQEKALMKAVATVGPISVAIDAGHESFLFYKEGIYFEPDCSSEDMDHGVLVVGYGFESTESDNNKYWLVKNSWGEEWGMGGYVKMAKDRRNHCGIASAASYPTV

Compound | Inhibition of cathepsin L at 25 µM (in words) (cathepsin L) | Inhibition of chymotrypsin at 25 µM (in words) (chymotrypsin) | Inhibition of papain at 25 µM (in words) (papain) | Inhibition of cathepsin B at 25 µM (in words) (cathepsin B) | Inhibition of SARS CoV-2 Mpro at 25 µM (in words) [1] | Inhibition of trypsin at 25 µM (in words) (trypsin) | further results
GYYYD (sidechain bridge or staple) [L7Y isomer-1] | No inhibition was observed | No inhibition was observed | No inhibition was observed | No inhibition was observed | No inhibition was observed | No inhibition was observed | 
GWLYD (sidechain bridge or staple) [Y6W] | No inhibition was observed | No inhibition was observed | No inhibition was observed | No inhibition was observed | No inhibition was observed | No inhibition was observed | 
fMGEGYLYD |  |  |  |  |  |  | Modification by ApyO (in words) (ApyO [2]): did not result in product formation
N‐terminally acetylated‐GRMGEGYLYD [Ac-ApyAct] |  |  |  |  |  |  | Km (ApyO [3]): 80 ± 7 µM; kcat (ApyO [3]): 1.63 and 1.63 ± 0.04
fMRMGEGYLYD [ApyAct] |  |  |  |  |  |  | Conversion of substrate by ApyO (ApyO [2]): ~70%
NCC(=O)N[C@H]1Cc2ccc(O)c(c2)Oc2ccc(cc2)C[C@@H](C(=O)N[C@@H](CC(=O)O)C(=O)O)NC(=O)[C@H](Cc2ccc(O)cc2)NC1=O (single isomer, unassigned) [L7Y isomer-2] |  |  |  |  |  |  | IC50 (papain): 11700 nM
CC(C)C[C@@H]1NC(=O)[C@@H](NC(=O)CN)Cc2ccc(O)c(c2)-c2cc(ccc2O)C[C@@H](C(=O)N[C@@H](C)C(=O)C(=O)O)NC1=O [desmethylaminopyruvatide A] |  |  |  |  |  |  | IC50 (cathepsin L; 50 mM sodium acetate pH 5.5, 2.5 mM EDTA, 2.5 mM DTT, 30 °C, 15 min preincubation at room temperature, fluorescence, meaning of ± and n not given, read-out: IC50, inhibition of cathepsin L): 0.6 nM; Inhibition of chymotrypsin (in words) (chymotrypsin; test concentration not given): No inhibition; IC50 (papain): 0.3 nM; IC50 (cathepsin B; 100 mM sodium phosphate pH 6.0, 1.33 mM EDTA, 2 mM DTT, 30 °C, 15 min preincubation at room temperature, fluorescence, readings every 60 s for 1 h, meaning of ± and n not given, read-out: IC50, inhibition of cathepsin B): 0.5 nM; Protease inhibition, potency in words ([4]; Cys proteases / select proteases): nanomolar activity against Cys‐proteases; also recorded: subnanomolar inhibitory activity against clinically relevant Cys proteases; Specificity (in words) ([4]; cathepsin L, cathepsin B, papain versus trypsin, chymotrypsin, Mpro): specificity towards the papain family of Cys proteases; Inhibition of SARS CoV-2 Mpro (in words) [1]: No inhibition; Inhibition of trypsin (in words) (trypsin; test concentration not given): No inhibition
GYWYD (sidechain bridge or staple) [L7W isomer-2] | No inhibition was observed | No inhibition was observed | No inhibition was observed | No inhibition was observed | No inhibition was observed | No inhibition was observed | Inhibition of ACE at 25 µM (in words) [5]: weak inhibition; Inhibition of ACE at 25 µM ([5]; IC50 not determined): ~40%
